# Measurements from patent US7514582B2, “2′-substituted 1,1′-biphenyl-2-carboxamides, processes for their preparation, their use as medicaments, and pharmaceutical preparations comprising them” (Sanofi-Aventis Deutschland GmbH, priority 1999, dated 2009).
row,melting point,Structure (SMILES)
1,135 °C,"O=C(NCc1ccccc1-c1ccccc1C(=O)NCCc1ccccn1)c1ccccc1 [Example 4 b, 2′-(Benzoylaminomethyl)biphenyl-2-carboxylic acid 2-(2-pyridyl)ethylamide]"
2,99 °C,"O=C(NCc1ccccc1-c1ccccc1C(=O)NCCc1ccccn1)Nc1ccccc1 [Example 5 b, 2′-[(3-Phenylureido)methyl]biphenyl-2-carboxylic acid 2-(2-pyridyl)ethylamide]"

row,Structure (SMILES),melting point
1,"CC(C)CCNC(=O)c1ccccc1-c1ccccc1CNC(=O)Nc1ccccc1 [Example 5 a, 2′-[(3-Phenylureido)methyl]biphenyl-2-carboxylic acid (3-methylbutyl)amide]",194 °C
